Assay [1] has as its target 5'-AMP-activated protein kinase catalytic subunit alpha-2 (Homo sapiens) (UniProt P54646).
Assay [2] addresses Dual specificity protein kinase CLK3 (Homo sapiens) (UniProt P49761).
Assay [3] has as its target T1, Calcium/calmodulin-dependent protein kinase type IV (Homo sapiens) (UniProt Q16566).
T1 sequence (whole entry): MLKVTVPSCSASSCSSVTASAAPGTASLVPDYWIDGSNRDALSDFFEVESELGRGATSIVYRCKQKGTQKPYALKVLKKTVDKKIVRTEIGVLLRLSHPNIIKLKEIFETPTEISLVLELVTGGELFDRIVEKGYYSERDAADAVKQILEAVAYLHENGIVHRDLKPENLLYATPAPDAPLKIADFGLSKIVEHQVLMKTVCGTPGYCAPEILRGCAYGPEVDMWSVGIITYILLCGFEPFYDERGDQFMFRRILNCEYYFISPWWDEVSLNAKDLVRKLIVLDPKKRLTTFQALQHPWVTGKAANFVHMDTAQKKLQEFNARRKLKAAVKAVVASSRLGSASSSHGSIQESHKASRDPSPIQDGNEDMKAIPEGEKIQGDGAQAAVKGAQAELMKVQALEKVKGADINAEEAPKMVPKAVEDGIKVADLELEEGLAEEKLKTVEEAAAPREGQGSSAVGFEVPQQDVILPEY

The target of assay [4] is T2, Serine/threonine-protein kinase PLK4 (Homo sapiens) (UniProt O00444).
T2 sequence (whole entry): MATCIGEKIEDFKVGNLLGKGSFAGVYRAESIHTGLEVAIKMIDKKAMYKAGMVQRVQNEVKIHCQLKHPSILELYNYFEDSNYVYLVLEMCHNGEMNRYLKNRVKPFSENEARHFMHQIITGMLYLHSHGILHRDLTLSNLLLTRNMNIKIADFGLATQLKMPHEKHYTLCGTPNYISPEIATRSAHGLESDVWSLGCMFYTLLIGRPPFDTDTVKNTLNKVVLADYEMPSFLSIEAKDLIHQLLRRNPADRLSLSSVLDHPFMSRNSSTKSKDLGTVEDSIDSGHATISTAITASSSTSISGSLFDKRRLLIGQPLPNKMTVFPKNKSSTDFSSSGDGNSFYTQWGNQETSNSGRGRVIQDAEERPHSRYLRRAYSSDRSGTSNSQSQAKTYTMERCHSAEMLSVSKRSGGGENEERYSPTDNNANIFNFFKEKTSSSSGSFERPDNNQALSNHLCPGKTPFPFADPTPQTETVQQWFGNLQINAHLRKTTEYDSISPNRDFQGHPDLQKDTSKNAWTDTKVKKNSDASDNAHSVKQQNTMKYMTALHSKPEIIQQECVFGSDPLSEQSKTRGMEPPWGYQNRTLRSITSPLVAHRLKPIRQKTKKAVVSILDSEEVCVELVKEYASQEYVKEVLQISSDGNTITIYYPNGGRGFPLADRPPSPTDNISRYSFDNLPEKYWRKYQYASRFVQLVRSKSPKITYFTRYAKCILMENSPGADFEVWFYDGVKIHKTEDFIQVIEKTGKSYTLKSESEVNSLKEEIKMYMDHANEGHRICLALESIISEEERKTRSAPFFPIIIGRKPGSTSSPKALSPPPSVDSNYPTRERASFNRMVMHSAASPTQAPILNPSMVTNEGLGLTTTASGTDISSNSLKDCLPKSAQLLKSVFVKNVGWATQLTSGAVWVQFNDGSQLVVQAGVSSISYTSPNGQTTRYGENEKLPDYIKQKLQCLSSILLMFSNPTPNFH

Assay [5] deals with Dual specificity mitogen-activated protein kinase kinase 2 (Homo sapiens, UniProt P36507).
For assay [6], the target named is Mitogen-activated protein kinase 6 (Homo sapiens) (UniProt Q16659).
The target of assay [7] is Casein kinase I isoform gamma-2 (Homo sapiens) (UniProt P78368).
Casein kinase I isoform gamma-2 (Homo sapiens), sequence (P78368 whole entry, looked up, canonical isoform): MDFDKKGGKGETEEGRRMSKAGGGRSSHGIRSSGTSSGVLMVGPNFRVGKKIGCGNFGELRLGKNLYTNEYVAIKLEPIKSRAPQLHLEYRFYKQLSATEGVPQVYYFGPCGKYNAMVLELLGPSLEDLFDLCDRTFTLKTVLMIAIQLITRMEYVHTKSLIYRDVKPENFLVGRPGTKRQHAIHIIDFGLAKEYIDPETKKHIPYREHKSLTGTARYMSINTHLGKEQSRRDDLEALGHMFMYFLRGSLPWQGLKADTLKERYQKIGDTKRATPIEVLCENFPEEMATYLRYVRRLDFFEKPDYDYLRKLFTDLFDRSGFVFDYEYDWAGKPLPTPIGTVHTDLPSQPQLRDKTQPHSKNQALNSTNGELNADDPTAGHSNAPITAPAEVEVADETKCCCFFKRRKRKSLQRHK
Assay [8] concerns the target T3, Serine/threonine-protein kinase VRK1 (Homo sapiens) (UniProt Q99986).
T3 sequence (whole entry): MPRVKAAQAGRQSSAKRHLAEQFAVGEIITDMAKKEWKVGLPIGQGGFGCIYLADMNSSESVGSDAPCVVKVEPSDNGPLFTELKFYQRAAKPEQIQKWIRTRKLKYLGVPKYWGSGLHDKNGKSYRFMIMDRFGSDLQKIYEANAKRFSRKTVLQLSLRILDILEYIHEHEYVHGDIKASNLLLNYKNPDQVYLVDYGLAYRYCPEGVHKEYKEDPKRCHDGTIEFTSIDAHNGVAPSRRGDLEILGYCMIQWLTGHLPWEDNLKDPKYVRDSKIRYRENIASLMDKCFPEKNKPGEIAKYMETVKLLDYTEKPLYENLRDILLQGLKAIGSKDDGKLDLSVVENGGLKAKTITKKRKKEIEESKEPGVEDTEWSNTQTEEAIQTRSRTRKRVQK

For assay [9], the target named is Casein kinase I isoform gamma-3 (Homo sapiens) (UniProt Q9Y6M4).
The target in assay [10] is Tyrosine-protein kinase JAK1 (Homo sapiens) (UniProt P23458).
Tyrosine-protein kinase JAK1 (Homo sapiens), sequence (P23458 whole entry): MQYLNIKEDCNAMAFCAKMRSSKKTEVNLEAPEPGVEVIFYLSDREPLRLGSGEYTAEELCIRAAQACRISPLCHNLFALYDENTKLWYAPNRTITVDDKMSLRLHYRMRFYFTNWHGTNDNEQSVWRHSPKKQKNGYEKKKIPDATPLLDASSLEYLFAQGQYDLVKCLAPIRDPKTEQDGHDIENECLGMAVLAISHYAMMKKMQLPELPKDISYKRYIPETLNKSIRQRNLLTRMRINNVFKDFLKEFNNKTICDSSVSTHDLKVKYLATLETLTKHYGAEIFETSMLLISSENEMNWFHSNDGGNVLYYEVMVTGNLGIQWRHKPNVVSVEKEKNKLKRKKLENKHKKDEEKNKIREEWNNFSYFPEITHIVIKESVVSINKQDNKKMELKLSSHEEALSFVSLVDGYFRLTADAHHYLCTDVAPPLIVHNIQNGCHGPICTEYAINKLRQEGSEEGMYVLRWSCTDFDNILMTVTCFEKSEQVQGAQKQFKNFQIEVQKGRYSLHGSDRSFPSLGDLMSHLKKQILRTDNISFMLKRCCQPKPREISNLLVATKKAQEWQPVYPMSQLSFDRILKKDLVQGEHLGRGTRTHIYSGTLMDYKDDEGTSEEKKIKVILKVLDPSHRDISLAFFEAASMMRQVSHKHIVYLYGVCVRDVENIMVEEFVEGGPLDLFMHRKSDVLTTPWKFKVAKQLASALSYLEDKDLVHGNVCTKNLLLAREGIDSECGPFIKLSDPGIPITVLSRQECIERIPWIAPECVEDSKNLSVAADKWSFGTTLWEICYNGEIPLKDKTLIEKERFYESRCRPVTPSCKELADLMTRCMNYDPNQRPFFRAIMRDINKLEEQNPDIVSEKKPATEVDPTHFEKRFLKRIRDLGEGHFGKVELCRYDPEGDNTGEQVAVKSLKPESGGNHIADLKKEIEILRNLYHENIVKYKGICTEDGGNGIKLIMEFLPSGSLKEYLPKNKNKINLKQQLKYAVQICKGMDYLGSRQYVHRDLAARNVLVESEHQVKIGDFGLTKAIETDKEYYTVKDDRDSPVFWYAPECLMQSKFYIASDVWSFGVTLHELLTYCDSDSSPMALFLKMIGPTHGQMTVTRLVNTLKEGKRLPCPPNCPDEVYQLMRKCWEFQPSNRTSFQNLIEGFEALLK
Assay [11] concerns the target Calcium/calmodulin-dependent protein kinase type II subunit gamma (Homo sapiens) (UniProt Q13555).
The target in assay [12] is Calcium/calmodulin-dependent protein kinase kinase 2 (Homo sapiens, UniProt Q96RR4).
In assay [13] the target is Calcium/calmodulin-dependent protein kinase type II subunit delta (Homo sapiens) (UniProt Q13557).
Calcium/calmodulin-dependent protein kinase type II subunit delta (Homo sapiens), sequence (Q13557 whole entry, canonical isoform): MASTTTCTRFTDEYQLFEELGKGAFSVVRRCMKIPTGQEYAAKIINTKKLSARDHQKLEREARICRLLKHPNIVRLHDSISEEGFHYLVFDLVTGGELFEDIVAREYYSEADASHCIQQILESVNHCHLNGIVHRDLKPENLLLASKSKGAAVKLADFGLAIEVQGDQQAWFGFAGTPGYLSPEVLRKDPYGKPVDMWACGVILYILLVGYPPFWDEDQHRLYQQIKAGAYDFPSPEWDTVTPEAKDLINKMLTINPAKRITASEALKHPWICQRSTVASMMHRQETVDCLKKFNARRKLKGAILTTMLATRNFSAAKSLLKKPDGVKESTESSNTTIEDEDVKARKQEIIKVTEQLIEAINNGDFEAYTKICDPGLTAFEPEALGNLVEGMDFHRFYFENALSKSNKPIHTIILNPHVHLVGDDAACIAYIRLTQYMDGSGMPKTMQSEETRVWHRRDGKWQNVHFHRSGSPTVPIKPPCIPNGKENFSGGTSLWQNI
Assay [14] has as its target Casein kinase I isoform gamma-1 (Homo sapiens) (UniProt Q9HCP0).
Assay [15] deals with Calcium/calmodulin-dependent protein kinase type 1G (Homo sapiens) (UniProt Q96NX5).
Calcium/calmodulin-dependent protein kinase type 1G (Homo sapiens), sequence (Q96NX5 whole entry): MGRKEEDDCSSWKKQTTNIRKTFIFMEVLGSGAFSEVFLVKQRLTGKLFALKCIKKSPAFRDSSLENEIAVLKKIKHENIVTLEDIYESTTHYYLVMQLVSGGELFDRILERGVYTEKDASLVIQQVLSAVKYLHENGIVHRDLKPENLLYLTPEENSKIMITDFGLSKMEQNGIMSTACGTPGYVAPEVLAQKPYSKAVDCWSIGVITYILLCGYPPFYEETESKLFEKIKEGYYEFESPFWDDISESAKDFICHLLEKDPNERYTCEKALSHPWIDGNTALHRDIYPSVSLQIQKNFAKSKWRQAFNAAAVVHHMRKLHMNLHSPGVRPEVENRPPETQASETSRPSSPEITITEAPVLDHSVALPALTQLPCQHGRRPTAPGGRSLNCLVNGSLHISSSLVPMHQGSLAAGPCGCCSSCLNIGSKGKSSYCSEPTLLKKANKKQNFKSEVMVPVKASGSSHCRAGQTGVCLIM
For assay [16], the target named is Serine/threonine-protein kinase 25 (Homo sapiens) (UniProt O00506).
Assay [17] has as its target Glycogen synthase kinase-3 beta (Homo sapiens, UniProt P49841).
Assay [18] deals with Ribosomal protein S6 kinase alpha-3 (Homo sapiens) (UniProt P51812).
Ribosomal protein S6 kinase alpha-3 (Homo sapiens), sequence (P51812 whole entry): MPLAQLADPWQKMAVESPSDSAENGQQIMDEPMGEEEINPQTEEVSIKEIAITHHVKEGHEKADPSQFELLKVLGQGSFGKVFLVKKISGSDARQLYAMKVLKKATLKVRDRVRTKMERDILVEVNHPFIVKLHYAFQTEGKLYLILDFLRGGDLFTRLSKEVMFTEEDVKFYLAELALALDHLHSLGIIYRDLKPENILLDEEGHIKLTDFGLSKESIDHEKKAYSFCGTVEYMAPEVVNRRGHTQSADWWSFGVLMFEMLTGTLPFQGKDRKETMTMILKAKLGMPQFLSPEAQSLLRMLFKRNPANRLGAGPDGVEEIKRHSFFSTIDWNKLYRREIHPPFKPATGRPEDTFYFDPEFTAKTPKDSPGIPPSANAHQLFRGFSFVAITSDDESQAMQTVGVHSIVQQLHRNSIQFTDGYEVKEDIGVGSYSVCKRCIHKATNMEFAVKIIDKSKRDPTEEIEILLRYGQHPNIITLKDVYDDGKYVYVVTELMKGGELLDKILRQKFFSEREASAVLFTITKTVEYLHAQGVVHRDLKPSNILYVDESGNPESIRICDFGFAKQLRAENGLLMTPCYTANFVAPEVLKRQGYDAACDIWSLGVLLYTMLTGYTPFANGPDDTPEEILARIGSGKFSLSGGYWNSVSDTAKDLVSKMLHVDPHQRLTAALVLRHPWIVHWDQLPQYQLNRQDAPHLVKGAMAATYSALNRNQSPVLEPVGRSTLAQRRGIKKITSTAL
Assay [19] addresses TRAF2 and NCK-interacting protein kinase (Homo sapiens) (UniProt Q9UKE5).
Assay [20] deals with Serine/threonine-protein kinase pim-2 (Homo sapiens, UniProt Q9P1W9).

In ChEMBL document CHEMBL1145498, “A systematic interaction map of validated kinase inhibitors with Ser/Thr kinases” (Proc Natl Acad Sci U S A, 2007) one finds ΔTm data, which are given here for seven compounds.

Casein kinase I isoform gamma-1 (Homo sapiens), sequence (Q9HCP0 whole entry, looked up, canonical isoform): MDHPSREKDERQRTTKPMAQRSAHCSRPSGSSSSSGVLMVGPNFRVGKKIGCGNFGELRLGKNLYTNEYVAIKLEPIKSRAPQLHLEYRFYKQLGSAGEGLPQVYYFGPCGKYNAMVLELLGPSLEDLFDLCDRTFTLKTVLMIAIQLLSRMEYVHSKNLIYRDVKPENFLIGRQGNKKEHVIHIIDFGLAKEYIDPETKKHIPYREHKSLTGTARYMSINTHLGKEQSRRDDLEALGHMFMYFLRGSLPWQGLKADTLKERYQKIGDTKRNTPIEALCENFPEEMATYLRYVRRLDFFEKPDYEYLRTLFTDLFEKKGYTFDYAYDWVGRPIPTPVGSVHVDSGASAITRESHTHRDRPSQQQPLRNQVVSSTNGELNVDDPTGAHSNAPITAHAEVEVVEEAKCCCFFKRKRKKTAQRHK
Calcium/calmodulin-dependent protein kinase type II subunit gamma (Homo sapiens), sequence (Q13555 whole entry): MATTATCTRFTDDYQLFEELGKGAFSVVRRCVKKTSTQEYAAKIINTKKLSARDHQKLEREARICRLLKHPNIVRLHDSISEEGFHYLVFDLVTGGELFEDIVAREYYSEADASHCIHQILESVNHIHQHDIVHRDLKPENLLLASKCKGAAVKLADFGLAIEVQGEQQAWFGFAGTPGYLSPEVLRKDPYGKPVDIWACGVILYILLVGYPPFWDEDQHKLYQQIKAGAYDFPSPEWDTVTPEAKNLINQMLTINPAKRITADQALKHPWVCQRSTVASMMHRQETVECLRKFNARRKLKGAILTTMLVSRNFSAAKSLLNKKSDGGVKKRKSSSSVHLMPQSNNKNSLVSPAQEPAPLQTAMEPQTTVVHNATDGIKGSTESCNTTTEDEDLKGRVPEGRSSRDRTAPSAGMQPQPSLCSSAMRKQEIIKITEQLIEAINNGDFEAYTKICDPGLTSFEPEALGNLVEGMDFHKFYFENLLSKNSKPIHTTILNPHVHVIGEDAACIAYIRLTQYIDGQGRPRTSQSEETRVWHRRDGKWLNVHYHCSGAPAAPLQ
5'-AMP-activated protein kinase catalytic subunit alpha-2 (Homo sapiens), sequence (P54646 whole entry, looked up): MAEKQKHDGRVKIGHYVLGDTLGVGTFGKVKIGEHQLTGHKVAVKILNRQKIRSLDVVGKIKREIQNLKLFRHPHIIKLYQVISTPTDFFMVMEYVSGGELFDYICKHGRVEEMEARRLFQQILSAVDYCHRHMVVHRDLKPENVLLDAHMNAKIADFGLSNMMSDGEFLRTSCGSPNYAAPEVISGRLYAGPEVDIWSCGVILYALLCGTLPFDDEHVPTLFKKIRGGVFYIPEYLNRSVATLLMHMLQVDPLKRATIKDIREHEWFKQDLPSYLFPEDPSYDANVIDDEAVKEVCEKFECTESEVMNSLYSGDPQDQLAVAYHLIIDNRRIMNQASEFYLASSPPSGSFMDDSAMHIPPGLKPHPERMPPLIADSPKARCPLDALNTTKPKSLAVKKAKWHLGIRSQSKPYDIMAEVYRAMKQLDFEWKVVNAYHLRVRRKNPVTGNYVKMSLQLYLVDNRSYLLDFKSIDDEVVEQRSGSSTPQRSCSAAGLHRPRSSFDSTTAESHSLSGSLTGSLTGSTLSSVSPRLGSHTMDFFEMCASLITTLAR

For `Oc1cccc(-c2nc(N3CCOCC3)c3oc4ncccc4c3n2)c1`, the ΔTm in assay [1] is -0.1 °C; in assay [2], 0 °C; in assay [3], 0 °C; in [4], 0.4 °C; in assay [5] it was 0.3 °C; in [6] it was 0.5 °C. Moreover, the ΔTm in assay [7] was 0.1 °C; in assay [8], -0.1 °C; in assay [9], 0.1 °C; in assay [10], 0.1 °C; in assay [11], 0.1 °C; in [12] it was -0.3 °C. The ΔTm in [13] is -0.6 °C; in [14], 0.4 °C; in assay [15] it was 0.1 °C; in assay [16], -0.6 °C; in [17], 0.1 °C; in assay [18], 0.1 °C. Also, the ΔTm in assay [19] is 0.3 °C; in [20], 0.1 °C.

For the compound `Nc1cc2ncnc(Nc3cccc(Br)c3)c2cc1N`, the ΔTm is -0.9 °C in [1]; 1.6 °C in assay [2]; 0.4 °C in assay [3]; 1.5 °C in assay [4]; 1.2 °C in assay [5]; 0.6 °C in assay [6]. Further, the ΔTm in [7] is 0.4 °C; in assay [8], -0.3 °C; in assay [9] it was 0.4 °C; in assay [10] it was 2.2 °C; in [11], -0.1 °C; in assay [12], -1 °C. For the same compound, the ΔTm in assay [13] was -1.6 °C; in assay [14] it was 0.3 °C; in assay [15], 0.5 °C; in assay [16], 2.5 °C; in assay [17], 1.2 °C; in [18], 0.9 °C. The values for the ΔTm in assay [19] and in [20] were 0.5 °C and 2.6 °C, respectively.

Consider `Cc1cc2ncc(-c3ccccc3)nc2cc1C`, for which the ΔTm is -1 °C in assay [1]; 0 °C in [2]; 0.4 °C in assay [3]; 0.1 °C in [4]; 0 °C in assay [5]; 1 °C in assay [6]. The ΔTm in assay [7] was 0.5 °C; in assay [8], 1.2 °C; in [9], 1.1 °C; in assay [10], 1.3 °C; in assay [11], 0.4 °C; in [12] it was -0.4 °C. Also, the ΔTm in assay [13] was 0.4 °C; in assay [14] it was 0.7 °C; in assay [15] it was 0.7 °C; in [16], 0.3 °C; in assay [17], -0.6 °C; in assay [18], 0.2 °C. Besides, the values for the ΔTm in [19] and in [20] were 0.6 °C and 0.4 °C, respectively.

Regarding `O=C1NC(=O)C(c2c[nH]c3ccccc23)=C1c1c[nH]c2ccccc12`, the shift in melting temperature (ΔTm) in assay [1] is 1.2 °C; in assay [2] it was 2.5 °C; in assay [3] it was 2.8 °C; in [4], 4.2 °C; in [5], 2.8 °C; in assay [6] it was 0.5 °C. Besides, the ΔTm in assay [7] is 0.7 °C; in assay [8], 0.8 °C; in assay [9], 0.7 °C; in assay [10], -0.5 °C; in assay [11], 2.2 °C; in [12], -0.4 °C. The ΔTm in assay [13] was found to be 1 °C; in [14] it was 0.6 °C; in assay [15] it was 1 °C; in [16] it was 2 °C; in assay [17], 7.8 °C; in [18], 3.6 °C. The ΔTm in [19] stood at 1.2 °C; in [20], 4 °C.

As for `CC(C)N(CCO)c1nc(Nc2cccc(Cl)c2)c2ncn(C(C)C)c2n1`, the ΔTm in assay [1] was 0.2 °C; in assay [2], 4.2 °C; in [3], 2.2 °C; in [4], 1.2 °C; in assay [5] it was 0.6 °C; in assay [6], 0.1 °C. In addition, the ΔTm turned out to be 3.8 °C in assay [7]; 0.5 °C in [8]; 6.7 °C in [9]; 2.2 °C in assay [10]; 0.6 °C in assay [11]; 2.8 °C in [12]. Besides, the ΔTm is 0.2 °C in assay [13]; 6.1 °C in [14]; -0.1 °C in assay [15]; 3.4 °C in assay [16]; 2.4 °C in assay [17]; 6 °C in assay [18]. The ΔTm in assay [19] worked out at 3.6 °C; in assay [20], 0.2 °C.

For the compound `NC(=O)c1ccc(-c2nc(-c3ccc4c(c3)OCCO4)c(-c3ccccn3)[nH]2)cc1`, the ΔTm in [1] is -0.7 °C; in assay [2], 0.1 °C; in assay [3], -0.9 °C; in [4], 0.1 °C; in [5] it was -0.1 °C; in assay [6], -0.1 °C. Further, the ΔTm in assay [7] was 0.4 °C; in assay [8] it was 0.7 °C; in assay [9], 0.8 °C; in assay [10] it was 1.3 °C; in assay [11], 0.3 °C; in [12], -1.1 °C. In addition, the ΔTm in [13] is 0.3 °C; in [14] it was 0.4 °C; in assay [15] it was 1 °C; in assay [16] it was 0 °C; in [17], 0.6 °C; in assay [18], -0.1 °C. Besides, the values for the thermal shift (ΔTm) in [19] and in [20] were -0.6 °C and -0.2 °C, respectively.

Turning to `O=C1Nc2ccccc2/C1=C1/Nc2ccccc2/C1=N\O`, the ΔTm was 6.6 °C in assay [1]; 4 °C in [2]; 5.5 °C in [3]; 10.9 °C in assay [4]; 5.9 °C in assay [5]; 0.4 °C in assay [6]. Also, the ΔTm in [7] turned out to be 2.6 °C; in assay [8], 1.7 °C; in assay [9] it was 2.7 °C; in assay [10], 13.1 °C; in [11] it was 5.3 °C; in assay [12], 5.9 °C. Moreover, the ΔTm in assay [13] worked out at 2.8 °C; in assay [14] it was 2.4 °C; in [15], 3.1 °C; in assay [16] it was 4.9 °C; in assay [17], 11 °C; in [18], 7.5 °C. The ΔTm worked out at 5.9 °C in assay [19] and 2.8 °C in [20].

As a reminder, the ΔTm is the shift of the melting midpoint relative to a reference.
